Assay: In vitro release of model drugs methylene blue and BSA from NIPAAm-co-Dex-lactateHEMA hydrogel
Assay type: physicochemical
Settings: methylene blue from NIPAAm-co-Dex-lactateHEMA gel 5/4 (FIG. 9), PBS pH 7.4, 37° C.
Protocol: To test the potential of the developed hydrogels as drug release devices, two model drugs (22.5 mg) were loaded during the hydrogel synthesis, which were methylene blue and bovine serum albumin (BSA), representing small molecules and protein drugs, respectively. BSA- or methylene blue-loaded dry gels were immersed in a certain volume of PBS (pH 7.4) at 25 or 37° C. At selected time points, small volume of samples were taken and tested for solute concentration. The same volume of fresh PBS (pH 7.4) was replaced to maintain a constant volume of release medium. Concentration of methylene blue was measured by a UV spectrophotometer at 668 nm. Concentration of BSA was determined through Bradford protein assay.

CN(C)c1ccc2nc3ccc(=[N+](C)C)cc-3sc2c1 [methylene blue]
loaded drug released in initial burst: more than 70% | time after which drug release reached a stable stage: three
